Experimental data reported in the kinase profiling compilation of Christmann-Franck et al. (2016).

Columns and labels:
ACVR1B (human) = ACVR1B (human) (UniProt P36896)
EIF2AK1 (human) = EIF2AK1 (human) (UniProt Q9BQI3)
FRK (human) = FRK (human) (UniProt P42685)
MAP3K3 (human) = MAP3K3 (human) (UniProt Q99759)
TNK2 (human) = TNK2 (human) (UniProt Q07912)
SMG1 (human) = SMG1 (human) (UniProt Q96Q15)
TBK1 (human) = TBK1 (human) (UniProt Q9UHD2)
ULK3 (human) = ULK3 (human) (UniProt Q6PHR2)
BMP2K (human) = BMP2K (human) (UniProt Q9NSY1)
MERTK (human) = MERTK (human) (UniProt Q12866)
MAP3K1 (human) = MAP3K1 (human) (UniProt Q13233)
RPS6KA3 KD1 KD2 (human) = RPS6KA3 KD1 KD2 (human) (UniProt P51812)
HCK (human) = HCK (human) (UniProt P08631)
PRKAA1 (human) = PRKAA1 (human) (UniProt Q13131)
TAOK1 (human) = TAOK1 (human) (UniProt Q7L7X3)
SIK3 (human) = SIK3 (human) (UniProt Q9Y2K2)
MAP3K11 (human) = MAP3K11 (human) (UniProt Q16584)
CAMKK2 (human) = CAMKK2 (human) (UniProt Q96RR4)
CLK2 (human) = CLK2 (human) (UniProt P49760)
PTK2B (human) = PTK2B (human) (UniProt Q14289)
MAP3K4 (human) = MAP3K4 (human) (UniProt Q9Y6R4)
MAP4K5 (human) = MAP4K5 (human) (UniProt Q9Y4K4)
CAMK2G (human) = CAMK2G (human) (UniProt Q13555)
PRKCQ (human) = PRKCQ (human) (UniProt Q04759)
SYK (human) = SYK (human) (UniProt P43405)
NLK (human) = NLK (human) (UniProt Q9UBE8)
BTK (human) = BTK (human) (UniProt Q06187)
TEC (human) = TEC (human) (UniProt P42680)
ABL2 (human) = ABL2 (human) (UniProt P42684)
MAP4K2 (human) = MAP4K2 (human) (UniProt Q12851)
EPHB1 (human) = EPHB1 (human) (UniProt P54762)
CSK (human) = CSK (human) (UniProt P41240)

TBK1 (human), sequence (Q9UHD2 whole entry, looked up): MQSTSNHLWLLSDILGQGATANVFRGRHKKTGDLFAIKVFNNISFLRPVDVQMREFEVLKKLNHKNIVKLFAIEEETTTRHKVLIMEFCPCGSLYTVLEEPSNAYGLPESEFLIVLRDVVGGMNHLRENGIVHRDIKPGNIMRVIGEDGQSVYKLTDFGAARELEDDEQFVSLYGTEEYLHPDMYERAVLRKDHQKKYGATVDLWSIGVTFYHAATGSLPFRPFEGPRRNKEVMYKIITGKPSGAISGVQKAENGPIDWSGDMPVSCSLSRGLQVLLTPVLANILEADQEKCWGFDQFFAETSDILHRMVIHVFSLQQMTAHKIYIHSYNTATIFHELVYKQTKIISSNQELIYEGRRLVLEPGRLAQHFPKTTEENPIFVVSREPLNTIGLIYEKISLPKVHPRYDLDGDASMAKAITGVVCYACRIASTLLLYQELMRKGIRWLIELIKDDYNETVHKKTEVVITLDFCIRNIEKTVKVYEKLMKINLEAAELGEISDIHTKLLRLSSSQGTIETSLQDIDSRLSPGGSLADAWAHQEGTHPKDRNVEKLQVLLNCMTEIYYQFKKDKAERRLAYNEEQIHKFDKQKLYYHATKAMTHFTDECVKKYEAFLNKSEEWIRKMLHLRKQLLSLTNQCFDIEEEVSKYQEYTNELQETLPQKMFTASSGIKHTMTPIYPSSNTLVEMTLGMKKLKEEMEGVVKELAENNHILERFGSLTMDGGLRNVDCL
PRKCQ (human), sequence (Q04759 whole entry, looked up): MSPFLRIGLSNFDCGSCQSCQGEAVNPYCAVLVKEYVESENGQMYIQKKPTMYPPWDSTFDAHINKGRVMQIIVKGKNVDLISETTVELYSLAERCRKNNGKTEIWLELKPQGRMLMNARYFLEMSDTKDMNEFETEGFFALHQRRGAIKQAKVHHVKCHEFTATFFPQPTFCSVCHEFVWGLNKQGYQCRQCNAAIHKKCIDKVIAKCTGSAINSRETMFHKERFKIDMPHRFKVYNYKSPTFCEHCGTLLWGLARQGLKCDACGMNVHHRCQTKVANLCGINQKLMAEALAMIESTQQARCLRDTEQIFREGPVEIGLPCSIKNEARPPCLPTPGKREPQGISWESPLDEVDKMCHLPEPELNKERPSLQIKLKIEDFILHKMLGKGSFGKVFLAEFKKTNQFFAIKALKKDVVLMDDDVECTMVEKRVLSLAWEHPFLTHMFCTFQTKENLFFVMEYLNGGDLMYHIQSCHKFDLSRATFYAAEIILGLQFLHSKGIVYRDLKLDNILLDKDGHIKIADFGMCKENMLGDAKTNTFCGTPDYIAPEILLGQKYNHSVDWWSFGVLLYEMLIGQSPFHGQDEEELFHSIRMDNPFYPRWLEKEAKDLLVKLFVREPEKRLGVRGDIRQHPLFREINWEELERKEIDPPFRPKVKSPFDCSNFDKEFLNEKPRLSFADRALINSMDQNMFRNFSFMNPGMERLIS
EIF2AK1 (human), sequence (Q9BQI3 whole entry, looked up): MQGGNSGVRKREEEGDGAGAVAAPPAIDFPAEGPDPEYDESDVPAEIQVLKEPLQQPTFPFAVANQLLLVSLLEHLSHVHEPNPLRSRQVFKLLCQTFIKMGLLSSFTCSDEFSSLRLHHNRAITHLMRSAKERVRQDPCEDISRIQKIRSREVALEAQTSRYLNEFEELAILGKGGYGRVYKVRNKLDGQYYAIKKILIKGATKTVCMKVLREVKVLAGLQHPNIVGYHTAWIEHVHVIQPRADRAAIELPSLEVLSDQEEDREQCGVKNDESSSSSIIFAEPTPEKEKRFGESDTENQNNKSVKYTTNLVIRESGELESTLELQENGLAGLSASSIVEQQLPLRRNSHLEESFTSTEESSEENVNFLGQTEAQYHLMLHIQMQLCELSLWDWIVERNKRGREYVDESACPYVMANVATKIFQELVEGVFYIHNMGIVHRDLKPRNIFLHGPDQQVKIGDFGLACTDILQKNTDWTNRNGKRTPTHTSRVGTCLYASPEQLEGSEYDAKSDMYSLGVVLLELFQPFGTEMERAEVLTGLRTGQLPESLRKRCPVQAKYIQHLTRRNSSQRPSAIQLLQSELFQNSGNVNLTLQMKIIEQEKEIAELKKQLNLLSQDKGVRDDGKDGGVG
TAOK1 (human), sequence (Q7L7X3 whole entry, looked up): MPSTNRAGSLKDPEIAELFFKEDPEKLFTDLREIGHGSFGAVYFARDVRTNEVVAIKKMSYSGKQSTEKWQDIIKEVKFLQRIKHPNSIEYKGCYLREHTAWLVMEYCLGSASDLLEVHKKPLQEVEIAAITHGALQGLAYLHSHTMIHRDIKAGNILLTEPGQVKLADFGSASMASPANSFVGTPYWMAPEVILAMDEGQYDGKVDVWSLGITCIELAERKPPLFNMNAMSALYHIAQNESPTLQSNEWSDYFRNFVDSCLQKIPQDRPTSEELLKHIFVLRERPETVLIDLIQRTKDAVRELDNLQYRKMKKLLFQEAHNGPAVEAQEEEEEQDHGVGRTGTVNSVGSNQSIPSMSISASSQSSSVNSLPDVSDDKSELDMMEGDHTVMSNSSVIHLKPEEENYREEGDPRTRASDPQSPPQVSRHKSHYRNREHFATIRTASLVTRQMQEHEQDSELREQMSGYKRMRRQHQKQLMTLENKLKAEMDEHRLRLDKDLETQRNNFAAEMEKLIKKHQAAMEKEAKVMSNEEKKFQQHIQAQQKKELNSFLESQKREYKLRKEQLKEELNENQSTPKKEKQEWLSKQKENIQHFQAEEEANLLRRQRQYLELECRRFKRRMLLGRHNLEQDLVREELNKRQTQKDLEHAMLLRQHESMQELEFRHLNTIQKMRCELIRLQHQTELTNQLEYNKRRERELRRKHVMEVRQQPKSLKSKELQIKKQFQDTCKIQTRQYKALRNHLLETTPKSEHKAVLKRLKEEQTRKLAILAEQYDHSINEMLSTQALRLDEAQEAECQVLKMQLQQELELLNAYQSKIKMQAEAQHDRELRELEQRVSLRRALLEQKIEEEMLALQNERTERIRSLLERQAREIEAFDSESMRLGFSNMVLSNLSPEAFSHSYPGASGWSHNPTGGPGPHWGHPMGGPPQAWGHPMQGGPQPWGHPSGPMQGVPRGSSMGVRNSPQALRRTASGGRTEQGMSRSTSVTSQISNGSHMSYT
PTK2B (human), sequence (Q14289 whole entry, looked up): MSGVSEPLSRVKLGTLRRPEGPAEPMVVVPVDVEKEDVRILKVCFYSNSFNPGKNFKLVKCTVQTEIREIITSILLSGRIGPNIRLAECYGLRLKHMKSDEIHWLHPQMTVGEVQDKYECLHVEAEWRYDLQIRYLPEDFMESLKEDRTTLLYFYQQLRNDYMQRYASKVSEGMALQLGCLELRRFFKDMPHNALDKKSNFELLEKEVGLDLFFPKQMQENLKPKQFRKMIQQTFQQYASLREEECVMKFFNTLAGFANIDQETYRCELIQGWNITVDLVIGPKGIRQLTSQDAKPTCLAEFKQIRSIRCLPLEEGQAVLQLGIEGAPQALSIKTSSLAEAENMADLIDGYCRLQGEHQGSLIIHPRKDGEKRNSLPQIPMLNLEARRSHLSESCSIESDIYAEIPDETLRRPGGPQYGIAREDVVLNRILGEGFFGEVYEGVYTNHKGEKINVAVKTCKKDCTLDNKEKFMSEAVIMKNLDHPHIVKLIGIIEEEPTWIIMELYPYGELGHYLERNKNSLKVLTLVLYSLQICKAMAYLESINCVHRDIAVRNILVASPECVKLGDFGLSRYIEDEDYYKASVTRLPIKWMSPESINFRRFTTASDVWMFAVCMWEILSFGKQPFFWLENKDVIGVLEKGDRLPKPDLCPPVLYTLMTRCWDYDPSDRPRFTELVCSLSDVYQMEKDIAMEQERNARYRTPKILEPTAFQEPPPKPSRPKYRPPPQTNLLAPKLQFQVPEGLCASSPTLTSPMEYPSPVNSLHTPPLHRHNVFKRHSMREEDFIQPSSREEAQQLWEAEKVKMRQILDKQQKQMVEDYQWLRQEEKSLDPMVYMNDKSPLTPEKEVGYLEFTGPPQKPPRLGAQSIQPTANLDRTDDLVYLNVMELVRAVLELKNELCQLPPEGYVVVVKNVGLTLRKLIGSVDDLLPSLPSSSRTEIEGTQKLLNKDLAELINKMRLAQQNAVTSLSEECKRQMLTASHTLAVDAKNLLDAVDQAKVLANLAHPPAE
PRKAA1 (human), sequence (Q13131 whole entry, looked up): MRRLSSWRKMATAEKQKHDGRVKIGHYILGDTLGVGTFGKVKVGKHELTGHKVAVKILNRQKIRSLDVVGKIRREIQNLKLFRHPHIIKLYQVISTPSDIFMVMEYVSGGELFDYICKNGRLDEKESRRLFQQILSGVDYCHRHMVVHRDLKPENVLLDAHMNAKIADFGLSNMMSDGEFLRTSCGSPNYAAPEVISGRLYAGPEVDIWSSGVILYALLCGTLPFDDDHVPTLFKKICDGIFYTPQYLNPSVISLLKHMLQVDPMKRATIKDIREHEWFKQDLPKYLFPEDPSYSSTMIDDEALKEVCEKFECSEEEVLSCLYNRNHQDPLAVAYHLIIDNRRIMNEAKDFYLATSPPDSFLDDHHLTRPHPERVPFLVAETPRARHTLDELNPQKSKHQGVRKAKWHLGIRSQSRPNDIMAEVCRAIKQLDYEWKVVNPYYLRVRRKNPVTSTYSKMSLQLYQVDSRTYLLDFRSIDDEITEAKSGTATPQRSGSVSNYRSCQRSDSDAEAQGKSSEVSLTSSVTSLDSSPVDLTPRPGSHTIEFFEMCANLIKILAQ

COc1cc(Nc2c(C#N)cnc3cc(OCCCN4CCN(C)CC4)c(OC)cc23)c(Cl)cc1Cl
IC50 (ACVR1B (human)): 91 nM | IC50 (EIF2AK1 (human)): 1220 nM | IC50 (FRK (human)): 507 nM | IC50 (MAP3K3 (human)): 612 nM | IC50 (TNK2 (human)): 316 nM | IC50 (SMG1 (human)): 836 nM | IC50 (TBK1 (human)): 1260 nM | IC50 (ULK3 (human)): 842 nM | IC50 (BMP2K (human)): 1060 nM | IC50 (MERTK (human)): 746 nM | IC50 (MAP3K1 (human)): 156 nM | IC50 (RPS6KA3 KD1 KD2 (human)): 2390 nM | IC50 (HCK (human)): 580 nM | IC50 (PRKAA1 (human)): 1060 nM | IC50 (TAOK1 (human)): 2630 nM | IC50 (SIK3 (human)): 346 nM | IC50 (MAP3K11 (human)): 1540 nM | IC50 (CAMKK2 (human)): 1430 nM | IC50 (CLK2 (human)): 1100 nM | IC50 (PTK2B (human)): 1220 nM | IC50 (MAP3K4 (human)): 299 nM | IC50 (MAP4K5 (human)): 493 nM | IC50 (CAMK2G (human)): 1520 nM | IC50 (PRKCQ (human)): 1560 nM | IC50 (SYK (human)): 745 nM | IC50 (NLK (human)): 1100 nM | IC50 (BTK (human)): 175 nM | IC50 (TEC (human)): 567 nM | IC50 (ABL2 (human)): 71 nM | IC50 (MAP4K2 (human)): 431 nM | IC50 (EPHB1 (human)): 369 nM | IC50 (CSK (human)): 707 nM
